Test results taken from US10806121B2, “Animal litter containing a pheromone composition” (Sergeant's Pet Care Products, LLC, priority 2014, dated 2020).

Tested on: cats
Test: Study 1: cat litter preference, pheromone-treated litter versus control litter
Type: in vivo
Conditions: for percentage preference (% of the cats using the treated litter): litter treated at 10 μg/3-lb (7.3 μg/kg), choice against control litter over 48 hours, 50% = no effect; for Litter Type Use, g, TRT (weights of litter after 2 days): treated litter box, 10 μg/3-lb, SE = 0.023; for Relative Difference, % / Significantly Different: treated versus control litter weight after 2 days; for effect on cats' litter preference: treated versus control litter, 48 hours
Experimental: In Study 1, four different treatments were tested: Androstenone (ANDRO); cat urinary pheromone, 3-mercapto-3-methyl-1-butanol (CAT); rabbit pheromone, 2-methylbut-2-enal (RP); and both the cat urinary pheromone and the rabbit pheromone (CAT+RP). 40 individual cats were used in this study to assess their preference to or aversion from a control litter versus a litter under one of the four treatments. Each treatment was tested with 10 cats. Litter was divided into 3 lb aliquots, and each aliquot was either used as a control or was mixed with a pheromone (or a pheromone combination) to be tested at a level of 10 μg/3-lb (or 7.3 μg/kg).
On Day 0, each cat was placed into an assigned chamber randomly placed with two litter boxes, one control and one treated. Each of the two litter boxes was weighed and the weight was recorded. The camera in the chamber was properly aligned to give a full view of the chamber and started taping on Day 0. On Day 1, 24 hours after the start of taping on Day 0, each of the two litter boxes in the chamber was weighed and the weight was recorded. On Day 2, 48 hours after the start of taping on Day 0, each of the two litter boxes in the chamber was again weighed. Litter can be disposed of after weighing on Day 2, and the camera was then turned off. The weights of the litter boxes over the 48 hours were used to determine whether the litter was used or not, and at which preference level.
The data were expressed as both a percentage preference (% of the cats using the treated litter in each treatment group) and by the weight of the litter (the litter gets heavier as it is soiled). It was expected that if the added pheromone had no effect on litter preference, 50% of the cats would use the treated litter and 50% would use the control litter. […] Further, the weight difference between a control litter or litter under treatment was used to show the relative strength of the effect of a particular treatment on cat's litter use behavior. During the study, some cats (N=3; 2 in CAT+RP and 1 in RP) spilled their litter and their data were unreliable and were not included.

For CC(C)(S)CCO [CAT, 3-mercapto-3-methyl-1-butanol], the “percentage preference (% of the cats using the treated litter)” value was 40%, the “Litter Type Use, g, TRT (weights of litter after 2 days)” value was 0.562 g and the “Relative Difference, %” value was −43%. For the same molecule, the “Significantly Different” value was “Yes” and the “effect on cats' litter preference” value was “slight aversion”.
In the case of C[C@]12CCC(=O)C[C@@H]1CC[C@@H]1[C@@H]2CC[C@]2(C)C=CC[C@@H]12 [ANDRO, Androstenone], the “percentage preference (% of the cats using the treated litter)” value is reported as 50%, the “Litter Type Use, g, TRT (weights of litter after 2 days)” value is reported as 0.571 g and the “Relative Difference, %” value is reported as −11%. The “Significantly Different” value was “No” and the “effect on cats' litter preference” value was “did not provide any attraction”.
